Key:
[1] = known, cited from earlier work
[2] = Appearance of fluid compositions, visually examined; type: physicochemical; settings: fluid compositions comprising a matrix polymer
Procedure: Fluid compositions made for testing were prepared as described in Example 1, except that 1) 1 mL of each fluid composition was made and the amount of mannitol added to the test fluid compositions was 0% (w/v) for control, 0.5% (w/v), 5% (w/v), 9% (w/v), and 17% (w/v). The appearance of the fluid compositions was visually examined.

[3] = Chemical and physical stability of mannitol after sterilization; type: physicochemical; settings: 25% Mannitol autoclaved five times at 121° C. for 15 minutes
Procedure: The chemical and physical stability of mannitol after sterilization was determined by autoclaving 25% Mannitol ([…] Pharmaceuticals, Itasca, Ill.) five times at 121° C. for 15 minutes.

mannitol that fluid compositions can include before it begins to precipitate [2]: about 15.4%
chemical and physical stability after sterilization [3]: chemically and physically stable
SMILES: OC[C@@H](O)[C@@H](O)[C@H](O)[C@H](O)CO [mannitol]
mass solubility ([1]; in water): 15.4%
mannitol solubility in water [1]: 1 g mannitol/5.5 ml water

From patent US9585821B2, “Methods for making compositions for improving skin conditions” (Allergan Industrie SAS, priority 2010, dated 2017)
